Results reported in patent EP1213282A1, “Substituted imidazolium salts and their use for the inhibition of protein ageing” (ALTEON Inc., priority 1996, dated 1997).
Read-outs that look alike come from different tables or passages of the source.

Legend:
[1] = biological target: T1, cross-linking of glycated bovine serum albumin (AGE-BSA) to the rat tail tendon collagen (Bos taurus, UniProt P02769); experiment: Inhibition of cross-linking of glycated BSA (AGE-BSA) to collagen-coated plate, ELISA (Example 4); type: biochemical; conditions: for inhibition at 10000 µM: 4 h
T1 construct: The AGE-BSA was prepared by incubating BSA at a concentration of 200 mg per ml with 200 mM glucose
T1 sequence (P02769 25-607): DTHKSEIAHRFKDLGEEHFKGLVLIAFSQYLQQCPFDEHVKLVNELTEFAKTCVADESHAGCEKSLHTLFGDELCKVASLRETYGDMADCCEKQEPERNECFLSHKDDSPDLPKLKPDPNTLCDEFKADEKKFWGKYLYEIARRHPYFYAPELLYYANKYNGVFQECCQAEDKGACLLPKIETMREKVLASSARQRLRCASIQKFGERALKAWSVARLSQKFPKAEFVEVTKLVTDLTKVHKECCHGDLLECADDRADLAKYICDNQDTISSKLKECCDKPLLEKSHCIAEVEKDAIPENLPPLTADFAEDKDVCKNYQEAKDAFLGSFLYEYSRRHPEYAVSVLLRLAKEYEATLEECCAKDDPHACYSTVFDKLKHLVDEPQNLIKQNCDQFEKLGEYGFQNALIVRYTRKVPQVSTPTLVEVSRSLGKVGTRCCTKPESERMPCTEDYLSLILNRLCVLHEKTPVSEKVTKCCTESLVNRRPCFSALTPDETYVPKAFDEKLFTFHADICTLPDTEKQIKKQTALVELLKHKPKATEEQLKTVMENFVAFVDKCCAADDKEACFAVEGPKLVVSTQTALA
Protocol: The following method was used to evaluate the ability of the compounds of the present invention to inhibit the cross-linking of glycated bovine serum albumin (AGE-BSA) to the rat tail tendon collagen coated 96-well plate.
The glycated BSA was then extensively dialyzed against phosphate buffer solution (PBS) for 48 hours with additional 5 times buffer exchanges. […] The blocking solution was removed from the wells by washing the plate twice with PAS-Tween 20 solution (0.05% Tween 20) using a NUNC-multiprobe or Dynatech ELISA-plate washer. […] The unbrowned BSA in PBS buffer with or without testing compound were added to the separate wells as the blanks. The uncross-linked AGE-BSA was then removed by washing the wells three times with PBS-Tween buffer. The cross-linked AGE-BSA to the tail tendon coated plate was then quantitated by the polyclonal antibody raised against AGE-RNase. After a one-hour incubation period, AGE antibody was removed by washing 4 times with PBS-Tween.
The bound AGE antibody was then detected with the addition of horseradish peroxidase-conjugated secondary antibody, e.g., goat anti-rabbit immunoglobulin and incubation for 30 minutes. […] The reaction was allowed for an additional 15 minutes and the absorbance was read at 410 nm in a Dynatech plate reader.

[2] = biological target: T2, AGE-BSA previously crosslinked to the collagen (Bos taurus, UniProt P02769); experiment: AGE cross-link breaking sandwich enzyme immunoassay (Example 6); type: biochemical; conditions: 10 mM, 16 hours, 37°C
T2 construct: purchased Calbiochem (BSA Type V); Collaborative Biomedical Products (Biocoat collagen plates)
T2 sequence (P02769 25-607): as above
T2 sequence (P02454 152-1207 partner limits assumed): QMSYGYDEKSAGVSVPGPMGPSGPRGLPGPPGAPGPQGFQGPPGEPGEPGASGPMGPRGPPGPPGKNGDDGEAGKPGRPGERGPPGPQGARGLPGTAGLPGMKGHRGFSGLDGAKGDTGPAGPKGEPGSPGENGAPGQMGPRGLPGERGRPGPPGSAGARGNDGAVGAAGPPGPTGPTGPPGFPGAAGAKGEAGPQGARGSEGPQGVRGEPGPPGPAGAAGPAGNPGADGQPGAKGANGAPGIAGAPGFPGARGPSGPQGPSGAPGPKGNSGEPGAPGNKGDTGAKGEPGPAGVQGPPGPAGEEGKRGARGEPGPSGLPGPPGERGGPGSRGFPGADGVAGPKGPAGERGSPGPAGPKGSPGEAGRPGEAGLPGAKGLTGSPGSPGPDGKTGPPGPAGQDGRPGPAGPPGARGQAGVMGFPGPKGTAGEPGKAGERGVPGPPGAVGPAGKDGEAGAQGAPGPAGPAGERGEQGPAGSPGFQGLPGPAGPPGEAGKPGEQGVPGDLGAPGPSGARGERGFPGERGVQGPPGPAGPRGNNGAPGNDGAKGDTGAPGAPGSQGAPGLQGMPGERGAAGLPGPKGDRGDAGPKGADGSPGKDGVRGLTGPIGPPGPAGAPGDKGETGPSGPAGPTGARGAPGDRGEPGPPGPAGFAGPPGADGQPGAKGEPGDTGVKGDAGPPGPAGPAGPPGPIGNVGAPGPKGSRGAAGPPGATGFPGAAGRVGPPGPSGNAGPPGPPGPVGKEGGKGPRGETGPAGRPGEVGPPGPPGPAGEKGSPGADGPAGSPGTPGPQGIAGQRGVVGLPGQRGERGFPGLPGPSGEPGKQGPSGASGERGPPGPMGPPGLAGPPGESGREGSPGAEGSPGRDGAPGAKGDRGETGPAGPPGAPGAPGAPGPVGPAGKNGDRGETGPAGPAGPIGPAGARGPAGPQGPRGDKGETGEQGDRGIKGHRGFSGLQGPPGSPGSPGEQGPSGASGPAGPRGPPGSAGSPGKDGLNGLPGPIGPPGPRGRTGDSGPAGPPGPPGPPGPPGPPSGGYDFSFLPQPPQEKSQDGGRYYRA
T2 sequence (P02466 86-1125 partner limits assumed): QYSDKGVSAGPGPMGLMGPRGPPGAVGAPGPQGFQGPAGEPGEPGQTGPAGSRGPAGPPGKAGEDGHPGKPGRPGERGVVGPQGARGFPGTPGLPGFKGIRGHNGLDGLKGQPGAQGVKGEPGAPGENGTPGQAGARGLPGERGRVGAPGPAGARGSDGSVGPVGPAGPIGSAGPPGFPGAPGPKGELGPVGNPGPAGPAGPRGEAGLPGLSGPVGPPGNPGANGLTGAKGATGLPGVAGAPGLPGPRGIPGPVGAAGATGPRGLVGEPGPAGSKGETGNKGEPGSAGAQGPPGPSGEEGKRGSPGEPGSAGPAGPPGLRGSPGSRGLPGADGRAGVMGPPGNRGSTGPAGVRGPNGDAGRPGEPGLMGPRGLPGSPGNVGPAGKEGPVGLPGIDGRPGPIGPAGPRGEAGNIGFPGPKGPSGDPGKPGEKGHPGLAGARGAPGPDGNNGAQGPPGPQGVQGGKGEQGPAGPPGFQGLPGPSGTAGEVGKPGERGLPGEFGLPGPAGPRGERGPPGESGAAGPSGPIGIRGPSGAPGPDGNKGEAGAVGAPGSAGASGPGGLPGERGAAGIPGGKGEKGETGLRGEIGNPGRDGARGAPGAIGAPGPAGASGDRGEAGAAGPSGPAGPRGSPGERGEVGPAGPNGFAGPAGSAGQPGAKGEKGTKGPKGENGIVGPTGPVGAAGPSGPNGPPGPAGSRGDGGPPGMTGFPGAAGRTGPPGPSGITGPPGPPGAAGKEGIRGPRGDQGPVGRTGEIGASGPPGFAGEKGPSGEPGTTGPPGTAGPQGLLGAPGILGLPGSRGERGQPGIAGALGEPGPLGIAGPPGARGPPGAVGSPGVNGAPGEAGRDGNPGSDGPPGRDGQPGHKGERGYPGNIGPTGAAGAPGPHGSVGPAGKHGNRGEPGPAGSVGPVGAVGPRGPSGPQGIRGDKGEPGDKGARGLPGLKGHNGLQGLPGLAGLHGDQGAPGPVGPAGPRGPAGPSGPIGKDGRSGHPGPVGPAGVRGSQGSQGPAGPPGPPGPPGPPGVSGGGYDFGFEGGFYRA
Protocol: In order to ascertain the ability of the compounds of the instant invention to "break" or reverse already formed advanced glycosylation endproducts, a novel sandwich enzyme immunoassay was developed which detects breaking of AGE (Advanced glycosylation endproduct) moieties from AGE-crosslinked protein. The assay utilizes collagen-coated 96 well microtiter plates that are obtained commercially. AGE-modified protein (AGE-BSA), prepared, for instance, as in Example 8, above, is incubated on the collagen-coated wells for four hours, is washed off the wells with PBS-Tween and solutions of the test compounds are added. Following an incubation period of 16 hours (37°C) cross-link-breaking is detected using an antibody raised against AGE-ribonuclease or with an antibody against BSA. Positive results in this assay indicate compounds that are capable of reducing the amount of AGE-BSA previously crosslinked to the collagen by breaking the crosslinks and allowing the liberated material to be flushed away in subsequent washing steps. Details of the assay are as follows:
• 1. AGE-BSA stock solutions were prepared as follows. Sodium phosphate buffer (0.4 M) was prepared by dissolving 6 grams of monobasic sodium phosphate in 100 ml of distilled water, 7 grams of dibasic sodium phosphate (0.4 M) in 100 ml of distilled water and adjusting the pH of the dibasic solution to 7.4 with the monobasic solution. Sodium azide (0.02 grams) was added per 100 ml volume to inhibit bacterial growth. The BSA solution was prepared as follows: 400 mg of Type V BSA (bovine serum albumin) was added for each ml of sodium phosphate buffer (above). A 400 mM glucose solution was prepared by dissolving 7.2 grams of dextrose in 100 ml of sodium phosphate buffer (above). The BSA and glucose solutions were mixed 1:1 and incubated at 37°C for 12 weeks. The pH of the incubation mixture was monitored weekly and adjusted to pH 7.4 if necessary. After 12 weeks, the AGE-BSA solution was dialyzed against PBS for 48 hours with four buffer changes, each at a 1:500 ratio of solution to dialysis buffer. Protein concentration was determined by the micro-Lowry method. The AGE-BSA stock solution was aliquoted and stored at -20°C. Dilute solutions of AGE-BSA were unstable when stored at -20°C. • 2. Working solutions for crosslinking and breaking studies were prepared as follows. Test compounds were dissolved in PBS and the pH was adjusted to pH 7.4 if necessary. AGE-BSA stock solution was diluted in PBS to measure maximum crosslinking. The concentration of AGE-BSA necessary to achieve the optimum sensitivity was determined by initial titration of each lot of AGE-BSA. • 3. Wash buffer ("PBS-Tween") was prepared as follows. PBS was prepared by dissolving the following salts in one liter of distilled water: NaCl, 8 grams; KCl, 0.2 gram, KH2PO4. 1.15 grams; NaN3, 0.2 gram. Tween-20 was added to a final concentration of 0.05% (vol/vol). • 4. Substrates for detection of secondary antibody binding were prepared by diluting the HRP substrate buffer 1:10 in distilled water and mixing with ABTS chromogen 1:50 just prior to use.
• 1. Biocoat plates were blocked with 300 µl of "Superbloc". Plates were blocked for one hour at room temperature and were washed with PBS-Tween three times with the Dynatech platewasher before addition of test reagents. • 2. Each experiment was set up in the following manner. The first three wells of the Biocoat plate were used for the reagent blank. Fifty microliters of solutions AGE-BSA were added to test wells in triplicate and only PBS in blank wells. The plate was incubated at 37°C for four hours and washed with PBS-Tween three times. Fifty microliters of PBS was added to the control wells and 50 µl of the test "AGE Cross-link breaker" compound was added to the test wells and blank. The plate was incubated overnight (approximately 16 hours) with the test "AGE Cross-link breaker" compound, followed by washing in PBS-Tween before addition of primary antibody (below). • 3. […]

[3] = Inhibition of ribose-induced cross-linking of N-acetyl glycyl-lysine methyl ester, fluorescence (Example 5); type: biochemical; conditions: 37°C, 16-24 hours, pH 7.4; fluorescence 350/400 nm
Protocol: Materials: • N-acetylglycyllysine methyl ester (DP in formula below) • Ribose (R in formula below) • Test compounds (C in formula below)
Reagents: • 0.5 M sodium phosphate buffer pH 7.4 • N-acetylglycyllysine methyl ester in 0.5M sodium phosphate buffer, pH 7.4 Ribose: 800 mM
Test compounds dissolved in the above buffer and the pH is adjusted to 7.4, if necessary
Reaction mixtures are prepared as follows:
and incubated at 37°C for 16-24 hours. At the end of the incubation period, the fluorescence is read using an excitation wavelength of 350 nm and emission wavelength of 400 nm. The inhibition of the cross-linking is calculated from the decrease in the fluorescence in the presence of the test compounds according to the formula: […] [formula]
The Inhibition by various test compounds (IC50) is as follows: […]

[4] = test system: fixed protein (gelatin. i.e., collagen) surface; experiment: Surface browning experiment on gelatin/paper disks (Example 10); conditions: 100 Mm glucose-6-phosphate, one week at 50°C; Peridex at final 0.04% chlorhexidine
Protocol: To further study the ability of inhibitors of nonenzymatic browning to prevent the discoloration of protein on a surface, such as that which occurs on the tooth surface, the following surface browning experiment is performed. As a substitute for a pellicle-covered tooth surface. unexposed and developed photographic paper is used to provide a fixed protein (gelatin. i.e., collagen) surface on a paper backing. Five millimeter circles are punched and immersed for one week at 50°C in a solution of 100 Mm glucose-6-phosphate in a 0.5 M phosphate buffer, pH 7.4, containing 3 Mm sodium azide. Glucose-6-phosphate is a sugar capable of participating in nonenzymatic browning at a more rapid rate than glucose. In addition to the glucose-6-phosphate, chlorhexidine and/or a compound of Formula I are included. After incubation, the gelatin/paper disks are rinsed with water, observed for brown color, and photographed.

[5] = pH 7.4, at 10 mM, 37°C, 4 hours, pH 7.4, read-out: %Inh.
[6] = primary antibody anti-AGE-RNase, read-out: %breaking allowed, Pr AbαAGE
[7] = primary antibody anti-BSA, read-out: %breaking allowed, PrAbαBSA

Structure (SMILES)	inhibition at 10000 µM [1, 5]	inhibition at 10000 µM [2, 6]	inhibition at 10000 µM [2, 7]	also measured
CCOC(=O)CCCCCn1cc[n+](CC(=O)c2ccc(C)cc2)c1 [1-(ethoxycarbonylpentyl)-3-[2-(4'-methylphenyl)-2-oxoethyl]-imidazolium bromide]	33%			
Cn1cc[n+](CC(=O)c2ccc(Br)cc2)c1 [1-methyl-3-[2-(4'-bromophenyl)-2-oxoethyl]-imidazolium bromide]				inhibition at 10000 µM ([1]; pH 7.4, read-out: %Inh.): 23%
COc1ccc(C(=O)C[n+]2ccn(C)c2)cc1 [1-methyl-3-[2-(4'-methoxyphenyl)-2-oxoethyl]-imidazolium bromide]		38%	27%	
CCN(CC)c1ccc(C(=O)C[n+]2ccn(C)c2)cc1 [1-Methyl-3-[2-(4'-diethylaminophenyl)-2-oxo-ethyl]-imidazolium bromide]		32%	28%	IC50 [3]: 530 µM
[H]/N=C(\N/C(=N/[H])NCCCCCCNC(=N)NC(=N)Nc1ccc(Cl)cc1)Nc1ccc(Cl)cc1 [chlorhexidine]				brown color of gelatin/paper disks [4]: significant browning
CCOC(=O)CCCCCn1cc[n+](CC(=O)c2cccc(OC)c2)c1 [1-(ethoxycarbonylpentyl)-3-[2-(3'-methoxyphenyl)-2-oxoethyl]-imidazolium bromide]	40%			
CCOC(=O)CCCCCn1cc[n+](CC(=O)c2ccc(OC)cc2)c1 [1-(ethoxycarbonylpentyl)-3-[2-(4'-methoxyphenyl)-2-oxoethyl]-imidazolium bromide]	23%			%Inh. ([1]; at 10 mM, 37°C, 4 hours, pH 7.4, 240 min, 10000 µM): 40%
COc1cccc(C(=O)C[n+]2ccn(C)c2)c1 [1-methyl-3-[2-(3'-methoxyphenyl)-2-oxoethyl]-imidazolium bromide]		20%	24%	
Cn1cc[n+](CC(=O)c2ccc(F)cc2)c1 [1-methyl-3-[2-(4'-fluorophenyl)-2-oxoethyl]-imidazolium bromide]	29%			
